Test results taken from patent US20230399342A1 (Incyte Corporation, priority 2022, published 2023).

Assays:
[1] = molecular target: DGKα (Homo sapiens (Human), UniProt P23743); assay: In vitro DGKα inhibition assay (ADP-Glo); type: biochemical; details: His-tagged human recombinant enzyme, 0.1 nM DGKα, 50 μM ATP, 20 μM DLG, 90 minute incubation
Method: (§1) The DGKα and DGKξ biochemical reactions were performed using His-tagged human recombinant enzymes (Signal Chem, DGKα, #D21-1OBH; DGKξ, #D30-10H)) and DLG (Dilauroyl-sn-glycerol) lipid substrate (Signal Chem, #D430-59). ADP-Glo assay was performed using ADP-Glog™ kinase Assay kit (Promega, #V9104). The reactions were carried out in assay buffer containing 40 mM Tris, pH 7.5, 0.1% CHAPS, 0.1% Prionex, 40 mM NaCl, 5 mM MgCl2, 1 mM CaCl2, and 1 mM DTT. DGKα reactions contained 0.1 nM DGKα, 50 μM ATP, and 20 μM DLG. And DGKC reactions contained 0.4 nM DGK, 30 μM ATP, and 20 μM DLG.
(§2) For compound inhibition studies, 40 nL test compound in DMSO was added to wells of white polystyrene plates in 384-well (Greiner, #784075) or 1536-well format (Greiner, #782075). Compounds were added with top concentration of 2 mM with 11 point, 3-fold dilution series. Enzyme solution (contains 2×DGK enzyme concentration in Ix assay buffer) was added to the plate in 2 μL/well volume, followed by 2 μL/well of substrate solution (contains 2×concentration of ATP and DLG substrate in Ix assay buffer). Plates were then centrifuged for 1 min at 1200 RPM and sealed or lidded. For 4 μL reaction volume, test compounds were therefore diluted 100× to final top concentration of 20 μM. After 90 minute incubation, reactions were quenched by addition of 2 μL/well Promega ADP-Glo Reagent, followed by centrifugation and lidding. After 60 min incubation, 2 μL/well Promega Kinase Detection Reagent was added, plates centrifuged, and incubated for 30 min. Plates were then read using Luminescence method on BMG PHERAstar FSX plate reader. Percent inhibition was calculated and IC50s were determined using 4-parameter fit in Genedata Screener. Labcyte Echo acoustic dispenser was used for compound addition, and Formulatrix Tempest liquid handler was used for all reagent dispenses.

[2] = molecular target: DGKζ (Homo sapiens (Human), UniProt Q13574); assay: In vitro DGKζ inhibition assay (ADP-Glo); type: biochemical; details: His-tagged human recombinant enzyme, 0.4 nM DGK, 30 μM ATP, 20 μM DLG, 90 minute incubation
Chain of DGKζ (Q13574 whole entry): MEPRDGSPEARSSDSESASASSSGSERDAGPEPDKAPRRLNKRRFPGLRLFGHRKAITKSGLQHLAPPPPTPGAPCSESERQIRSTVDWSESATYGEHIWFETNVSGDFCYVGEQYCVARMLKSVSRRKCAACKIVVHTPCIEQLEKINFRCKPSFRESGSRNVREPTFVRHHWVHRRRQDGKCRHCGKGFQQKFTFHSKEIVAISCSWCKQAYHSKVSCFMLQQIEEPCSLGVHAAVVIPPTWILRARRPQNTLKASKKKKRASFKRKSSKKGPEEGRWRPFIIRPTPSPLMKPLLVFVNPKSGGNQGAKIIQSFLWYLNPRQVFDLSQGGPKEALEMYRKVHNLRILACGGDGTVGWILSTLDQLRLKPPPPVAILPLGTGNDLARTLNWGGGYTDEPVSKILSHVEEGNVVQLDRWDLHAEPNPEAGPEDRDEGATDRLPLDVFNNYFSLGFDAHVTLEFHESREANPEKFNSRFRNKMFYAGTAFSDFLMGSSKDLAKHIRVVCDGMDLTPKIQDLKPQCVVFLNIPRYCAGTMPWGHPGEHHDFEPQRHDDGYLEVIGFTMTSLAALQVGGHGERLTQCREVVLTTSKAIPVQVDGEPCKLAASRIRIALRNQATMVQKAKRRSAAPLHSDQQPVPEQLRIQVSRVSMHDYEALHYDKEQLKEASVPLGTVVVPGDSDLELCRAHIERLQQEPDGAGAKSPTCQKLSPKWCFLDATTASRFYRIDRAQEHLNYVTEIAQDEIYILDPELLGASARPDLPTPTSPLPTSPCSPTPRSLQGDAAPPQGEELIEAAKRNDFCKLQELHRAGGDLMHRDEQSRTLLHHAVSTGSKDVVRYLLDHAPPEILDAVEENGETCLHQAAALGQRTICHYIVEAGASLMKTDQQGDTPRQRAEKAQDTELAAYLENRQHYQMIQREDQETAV
Method: as §1, §2

Chain of DGKα (P23743 whole entry): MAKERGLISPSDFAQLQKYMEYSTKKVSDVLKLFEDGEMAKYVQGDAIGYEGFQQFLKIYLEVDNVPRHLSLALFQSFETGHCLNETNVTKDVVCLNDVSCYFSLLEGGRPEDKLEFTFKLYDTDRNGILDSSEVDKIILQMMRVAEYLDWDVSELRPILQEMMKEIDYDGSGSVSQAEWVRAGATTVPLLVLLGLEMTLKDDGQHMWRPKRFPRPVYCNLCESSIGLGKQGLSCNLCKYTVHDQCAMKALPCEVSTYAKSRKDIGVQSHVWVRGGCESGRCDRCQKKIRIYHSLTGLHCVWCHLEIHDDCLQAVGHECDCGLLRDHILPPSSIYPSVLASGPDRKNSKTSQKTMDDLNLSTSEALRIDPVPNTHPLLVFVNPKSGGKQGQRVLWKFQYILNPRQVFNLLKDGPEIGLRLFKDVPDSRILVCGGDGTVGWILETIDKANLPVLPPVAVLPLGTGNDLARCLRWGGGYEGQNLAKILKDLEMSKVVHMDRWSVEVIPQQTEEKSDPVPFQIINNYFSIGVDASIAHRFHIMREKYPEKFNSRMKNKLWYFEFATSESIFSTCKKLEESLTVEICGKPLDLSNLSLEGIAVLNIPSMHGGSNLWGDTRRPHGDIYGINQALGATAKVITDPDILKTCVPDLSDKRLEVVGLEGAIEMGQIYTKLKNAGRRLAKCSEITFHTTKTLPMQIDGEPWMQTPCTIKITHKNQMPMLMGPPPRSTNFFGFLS

IC50 [1] [nM] | IC50 [2] [nM] | Structure (SMILES)
≤ 20 | ≤ 20 | Cc1nc2c(N3C[C@@H](C)N(C(c4ccc(F)c(Cl)c4F)C4CC(F)(F)C4)C[C@@H]3C)nc3nncn3c2n1C[C@@H]1CCCO1 (stereo partly drawn) [Example 57, 4-((2S,5R)-4-((3-Chloro-2,4-difluorophenyl)(3,3-difluorocyclobutyl)methyl)-2,5-dimethylpiperazin-1-yl)-2-methyl-1-(((S)-tetrahydrofuran-2-yl)methyl)-1H-[1,2,4]triazolo[3,4-b]purine]
≤ 20 | > 2000 | CCn1ccc2c1c(N1C[C@@H](C)N(C(c3ccc(F)cc3)c3ccc(F)cc3)C[C@@H]1C)nc1nncn12 [Example 10, 5-((2S,5R)-4-(Bis(4-fluorophenyl)methyl)-2,5-dimethylpiperazin-1-yl)-6-ethyl-6H-pyrrolo[2,3-e][1,2,4]triazolo[4,3-a]pyrimidine]
≤ 20 | ≤ 20 | CC[C@H]1CN(C(c2ccc(F)cc2)c2ccc(F)cc2)[C@H](CC)CN1c1nc2nncn2c2c1nnn2C[C@@H]1CCCO1 [Example 31, 4-((2S,5R)-4-(Bis(4-fluorophenyl)methyl)-2,5-diethylpiperazin-1-yl)-1-(((S)-tetrahydrofuran-2-yl)methyl)-1H-[1,2,3]triazolo[4,5-e][1,2,4]triazolo[4,3-a]pyrimidine]
≤ 20 | ≤ 20 | C[C@@H]1CN(c2nc3nncn3c3c2ncn3C[C@@H]2CCCO2)[C@@H](C)CN1[C@@H](c1ccc(F)cc1)c1ccc(OC(F)(F)F)cn1 [Example 26, 4-((2S,5R)-4-((S)-(4-Fluorophenyl)(5-(trifluoromethoxy)pyridin-2-yl)methyl)-2,5-dimethylpiperazin-1-yl)-1-(((S)-tetrahydrofuran-2-yl)methyl)-1H-[1,2,4]triazolo[3,4-b]purine]
≤ 20 | ≤ 20 | Cc1nc2c(N3C[C@@H](C)N(C(c4ccc(Cl)cc4)c4ccc(Cl)cc4)C[C@@H]3C)nc3nncn3c2n1C[C@@H]1CCCO1 [Example 105, 4-((2S,5R)-4-(Bis(4-chlorophenyl)methyl)-2,5-dimethylpiperazin-1-yl)-2-methyl-1-(((S)-tetrahydrofuran-2-yl)methyl)-1H-[1,2,4]triazolo[3,4-b]purine]
≤ 20 | ≤ 20 | CC[C@@H]1CN(c2nc3nncn3c3c2nc(C)n3C[C@@H]2CCCO2)[C@@H](C)CN1C(c1ccc(F)cc1)c1ccc(C#N)cc1 (stereo partly drawn) [Example 132, 4-(((2R,5S)-2-Ethyl-5-methyl-4-(2-methyl-1-(((S)-tetrahydrofuran-2-yl)methyl)-1H-[1,2,4]triazolo[3,4-b]purin-4-yl)piperazin-1-yl)(4-fluorophenyl)methyl)benzonitrile]
≤ 20 | ≤ 20 | Cc1nc2c(N3C[C@@H](C)N(C(c4ccc(C(F)(F)F)c(F)c4)C(C)C)C[C@@H]3C)nc3nncn3c2n1C[C@@H]1CCCO1 (stereo partly drawn) [Example 83, 4-((2S,5R)-4-(1-(3-Fluoro-4-(trifluoromethyl)phenyl)-2-methylpropyl)-2,5-dimethylpiperazin-1-yl)-2-methyl-1-(((S)-tetrahydrofuran-2-yl)methyl)-1H-[1,2,4]triazolo[3,4-b]purine]
≤ 20 | 20 to 200 | Cc1nc2c(N3C[C@@H](C)N([C@@H](c4ccc(OC(F)F)cc4)C(C)C)C[C@@H]3C)nc3nncn3c2n1C[C@@H]1CCCO1 [Example 80, 4-((2S,5R)-4-((R)-1-(4-(difluoromethoxy)phenyl)-2-methylpropyl)-2,5-dimethylpiperazin-1-yl)-2-methyl-1-(((S)-tetrahydrofuran-2-yl)methyl)-1H-[1,2,4]triazolo[3,4-b]purine]
≤ 20 | ≤ 20 | Cc1nc2c(N3C[C@@H](C)N(C(c4ccc(Br)cc4)c4ccc(Br)cc4)C[C@@H]3C)nc3nncn3c2n1C[C@@H]1CCCO1 [Example 108, 4-((2S,5R)-4-(Bis(4-bromophenyl)methyl)-2,5-dimethylpiperazin-1-yl)-2-methyl-1-(((S)-tetrahydrofuran-2-yl)methyl)-1H-[1,2,4]triazolo[3,4-b]purine]
≤ 20 | ≤ 20 | C[C@@H]1CN(c2nc3nncn3c3c2ncn3CCN(C)C)[C@@H](C)CN1C(c1ccc(Cl)c(F)c1)C1CC(F)(F)C1 (stereo partly drawn) [Example 136, 2-(4-((2S,5R)-4-((4-Chloro-3-fluorophenyl)(3,3-difluorocyclobutyl)methyl)-2,5-dimethylpiperazin-1-yl)-1H-[1,2,4]triazolo[3,4-b]purin-1-yl)-N,N-dimethylethan-1-amine]
≤ 20 | ≤ 20 | C[C@@H]1CN(c2nc3nncn3c3c2nnn3C[C@H]2CCCO2)[C@@H](C)CN1C(c1ccc(Cl)cc1)c1ccc(Cl)cc1 [Example 106, 4-((2S,5R)-4-(Bis(4-chlorophenyl)methyl)-2,5-dimethylpiperazin-1-yl)-1-(((R)-tetrahydrofuran-2-yl)methyl)-1H-[1,2,3]triazolo[4,5-e][1,2,4]triazolo[4,3-a]pyrimidine]
≤ 20 | ≤ 20 | Cc1nc2c(N3C[C@@H](C)N(C(c4ccc(Cl)c(C(F)(F)F)c4)C4CC(F)(F)C4)C[C@@H]3C)nc3nncn3c2n1C[C@@H]1CCCO1 (stereo partly drawn) [Example 59, 4-((2S,5R)-4-((4-Chloro-3-(trifluoromethyl)phenyl)(3,3-difluorocyclobutyl)methyl)-2,5-dimethylpiperazin-1-yl)-2-methyl-1-(((S)-tetrahydrofuran-2-yl)methyl)-1H-[1,2,4]triazolo[3,4-b]purine]
≤ 20 | ≤ 20 | Cc1nc2c(N3C[C@@H](C)N([C@@H](c4ccc(C(F)(F)F)cc4)C(C)C)C[C@@H]3C)nc3nncn3c2n1C[C@@H]1CCCO1 [Example 68, 4-((2S,5R)-2,5-dimethyl-4-((R)-2-methyl-1-(4-(trifluoromethyl)phenyl)propyl)piperazin-1-yl)-2-methyl-1-(((S)-tetrahydrofuran-2-yl)methyl)-1H-[1,2,4]triazolo[3,4-b]purine]
≤ 20 | ≤ 20 | Cc1nc2c(N3C[C@@H](C)N([C@H](c4ccc(OC(F)F)cc4F)C(C)C)C[C@@H]3C)nc3nncn3c2n1C[C@@H]1CCCO1 [Example 75, 4-((2S,5R)-4-((S)-1-(4-(Difluoromethoxy)-2-fluorophenyl)-2-methylpropyl)-2,5-dimethylpiperazin-1-yl)-2-methyl-1-(((S)-tetrahydrofuran-2-yl)methyl)-1H-[1,2,4]triazolo[3,4-b]purine]
≤ 20 | ≤ 20 | Cc1nc2c(N3C[C@@H](C)N([C@H](c4ccc(Cl)c(Cl)c4)C4CC(F)(F)C4)C[C@@H]3C)nc3nncn3c2n1C[C@@H]1CCCO1 [Example 48, 4-((2S,5R)-4-((S)-(3,4-Dichlorophenyl)(3,3-difluorocyclobutyl)methyl)-2,5-dimethylpiperazin-1-yl)-2-methyl-1-(((S)-tetrahydrofuran-2-yl)methyl)-1H-[1,2,4]triazolo[3,4-b]purine]
≤ 20 | ≤ 20 | Cc1nc2c(N3C[C@@H](CO)N(C(c4ccc(C(F)(F)F)cc4)C4CC(F)(F)C4)C[C@@H]3C)nc3nncn3c2n1C[C@@H]1CCCO1 (stereo partly drawn) [Example 122, ((2S,5S)-1-((3,3-Difluorocyclobutyl)(4-(trifluoromethyl)phenyl)methyl)-5-methyl-4-(2-methyl-1-(((S)-tetrahydrofuran-2-yl)methyl)-1H-[1,2,4]triazolo[3,4-b]purin-4-yl)piperazin-2-yl)methanol]
≤ 20 | ≤ 20 | Cc1nc2c(N3C[C@@H](C)N([C@@H](c4ccc(C(F)F)cc4)C(C)C)C[C@@H]3C)nc3nncn3c2n1C[C@@H]1CCCO1 [Example 74, 4-((2S,5R)-4-((R)-1-(4-(difluoromethyl)phenyl)-2-methylpropyl)-2,5-dimethylpiperazin-1-yl)-2-methyl-1-(((S)-tetrahydrofuran-2-yl)methyl)-1H-[1,2,4]triazolo[3,4-b]purine]
– | 200 to 2000 | C[C@@H]1CN(c2nc3nncn3c3ccsc23)[C@@H](C)CN1C(c1ccc(F)cc1)c1ccc(F)cc1 [Example 8, 5-((2S,5R)-4-(Bis(4-fluor ophenyl)methyl)-2,5-dimethylpiperazin-1-yl)thieno[2,3-e][1,2,4]triazolo[4,3-a]pyrimidine]

Structure (SMILES) | IC50 [1] [nM] | IC50 [2] [nM]
Cc1nc2c(N3C[C@@H](C)N([C@H](c4ccc(F)cc4)c4ccc(F)c(C(F)(F)F)n4)C[C@@H]3C)nc3nncn3c2n1C[C@@H]1CCCO1 (single isomer, unassigned) [Example 104] | ≤ 20 | ≤ 20
